Data reported in patent US11584765B2 (priority 2017, dated 2023).
Structures can show the parent of a compound that is named as a salt.

Test system: C57BL/6 mice
Assay: animal or person
Type: in vivo
Conditions: Mus musculus, sc, 0.5 h, s.c. administration, 30 min, 55° C. water, read-out: ED50 (mg/kg) at 30 min on C57BL/6 mice in Warm-water Tail-flick Test

Structure (SMILES) | ED50 [mg/kg]
Cc1ccc(C(C)(C)N2CC[C@@](CO)(CCc3cc[nH]c(=O)c3)C2)cn1.Cl [Compound 368, (S)-4-(2-(3-(hydroxymethyl)-1-(2-(6-methylpyridin-3-yl)propan-2-yl)pyrrolidin-3-yl)ethyl)pyridin-2(1H)-one HCl] | < 10
c1ccc(CCC2(C3CCCO3)CCN(Cc3ccccc3-c3cccs3)C2)cc1 (stereo not drawn) [Compound 194, 3-phenethyl-3-(tetrahydrofuran-2-yl)-1-(2-(thiophen-2-yl)benzyl)pyrrolidine] | > 10
CC(=O)Nc1ccc(CN2CCC(CCc3ccccc3)(C3CCC(C)O3)CC2)cc1 (stereo not drawn) [Compound 160, N-(4-((4-(5-methyltetrahydro-furan-2-yl)-4-phenethylpiperidin-1-yl)methyl)phenyl)acetamide] | < 10
CC(=O)Nc1ccc(CN2CCC(/C=C/c3ccccc3)(c3ccncc3)CC2)cc1 [Compound 40, (E)-N-(4-((4-(pyridin-4-yl)-4-styrylpiperidin-1-yl)methyl)phenyl)acetamide] | > 10
CCOC(C)(C)[C@@]1(CCc2cccs2)CCN(C(C)c2ccc(C)nc2C)C1 (stereo partly drawn) [Compound 403, 3-(1-((S)-3-(2-ethoxypropan-2-yl)-3-(2-(thiophen-2-yl)ethyl)pyrrolidin-1-yl)ethyl)-2,6-dimethylpyridine] | < 10
CCOC[C@@]1(CCc2ccccc2)CCN(Cc2cnn(C)c2)C1 [Compound 235, (S)-4-((3-(ethoxymethyl)-3-phenethylpyrrolidin-1-yl)methyl)-1-methyl-1H-pyrazole] | < 10
Cc1ncc(CN2CCC(CCc3ccccc3)(C3CCCO3)C2)s1 (stereo not drawn) [Compound 231, 2-methyl-5-((3-phenethyl-3-(tetrahydrofuran-2-yl)pyrrolidin-1-yl)methyl)thiazole] | < 10
CCOC[C@@]1(CCc2ccc(C)s2)CCN(Cc2cnn(C)c2)C1 [Compound 407, (S)-4-((3-(ethoxymethyl)-3-(2-(5-methylthiophen-2-yl)ethyl)pyrrolidin-1-yl)methyl)-1-methyl-1H-pyrazole] | < 10
CCOCC1(CCc2ccccc2)CCN(C(CC)c2ccc(C)nc2)C1 (stereo not drawn) [Compound 298, 5-(1-(3-(ethoxymethyl)-3-phenethylpyrrolidin-1-yl)propyl)-2-methylpyridine] | < 10
CC(=O)Nc1ccc(CN2CCC(CCc3ccccc3)(C3C=C(C)CO3)C2)cc1 (stereo not drawn) [Compound 202, N-(4-((3-(4-methyl-2,5-dihydrofuran-2-yl)-3-phenethylpyrrolidin-1-yl)methyl)phenyl)acetamide] | < 10
CCOCC1(CCc2ccccc2)CCN(Cc2ccc(-c3nnc(OCC)[nH]3)cc2)CC1 [Compound 188, 1-(4-(5-ethoxy-4H-1,2,4-triazol-3-yl)benzyl)-4-(ethoxymethyl)-4-phenethylpiperidine] | > 10
CCOC(=O)Nc1ccc(CN2CCC(CCc3ccccc3)(c3ccccn3)CC2)cc1 [Compound 22, ethyl 4-((4-phenethyl-4-(pyridin-2-yl)piperidin-1-yl)methyl)phenylcarbamate] | > 10
CCOC[C@@]1(CCc2cccs2)CCN(Cc2cccnc2)C1 [Compound 275, (S)-3-((3-(ethoxymethyl)-3-(2-(thiophen-2-yl)ethyl)pyrrolidin-1-yl)methyl)pyridine] | < 10
CCOC[C@@]1(CN(C)c2ccccc2)CCN(Cc2ccc(C)nc2)C1 [Compound 421, (S)-N-((3-(ethoxymethyl)-1-((6-methylpyridin-3-yl)methyl)pyrrolidin-3-yl)methyl)-N-methylaniline] | < 10
CCOC[C@@]1(CCC2CC2)CCN(C(C)(C)c2ccc(C)nc2)C1 [Compound 457, (S)-5-(2-(3-(2-cyclopropylethyl)-3-(ethoxy-methyl)pyrrolidin-1-yl)propan-2-yl)-2-methylpyridine citrate] | < 10
CCC(=O)Nc1ccc(CN2CCC(CCc3ccccc3)(c3ccccn3)CC2)cc1 [Compound 19, N-(4-((4-phenethyl-4-(pyridin-2-yl)piperidin-1-yl)methyl)phenyl)pro-pionamide] | > 10
C[C@@H](O)[C@]1(CCc2cccs2)CCN(Cc2cccnc2)C1 (single isomer, unassigned) [Compound 424] | < 10
CC(=O)Nc1ccc(CN2CC[C@](CCc3ccccc3)([C@@H]3C=CCO3)C2)cc1 (single isomer, unassigned) [Compound 260] | > 10
CCOC[C@@]1(CCc2cccs2)CCN(C2(c3ccc(C)nc3)CC2)C1 [Compound 379, (S)-5-(1-(3-(ethoxymethyl)-3-(2-(thiophen-2-yl)ethyl)pyrrolidin-1-yl)cyclopropyl)-2-methylpyridine] | < 10
CCOCC1(CCc2ccccc2)CCN(Cc2ccc(NC(C)=O)s2)CC1.Cl [Compound 86, N-(5-((4-(ethoxymethyl)-4-phenethylpiperidin-1-yl)methyl)thiophen-2-yl)acetamide HCl] | > 10
CCOC[C@@]1(CCc2csc(C)c2)CCN(C(C)(C)c2ccc(C)nc2)C1 [Compound 354, (S)-5-(2-(3-(ethoxymethyl)-3-(2-(5-methylthiophen-3-yl)ethyl)pyrrolidin-1-yl)propan-2-yl)-2-methylpyridine] | < 10

Structure (SMILES) | ED50 [mg/kg]
CCOC[C@@]1(CCc2cccs2)CCN(C(C)(C)c2ccc(OC)nc2)C1.Cl [Compound 453, (S)-5-(2-(3-(ethoxymethyl)-3-(2-(thiophen-2-yl)ethyl)pyrrolidin-1-yl)propan-2-yl)-2-methoxypyridine HCl] | < 10
OC[C@@]1(CCc2cccs2)CCN(Cc2cccnc2)C1 [Compound 412, (S)-(1-(pyridin-3-ylmethyl)-3-(2-(thiophen-2-yl)ethyl)pyrrolidin-3-yl)methanol] | < 10
CCOC[C@@]1(CCc2cccs2)CCN(Cc2c(C)cc(C)nc2C)C1 [Compound 416, (S)-3-((3-(ethoxymethyl)-3-(2-(thiophen-2-yl)ethyl)pyrrolidin-1-yl)methyl)-2,4,6-trimethylpyridine] | < 10
CCOC[C@@]1(CCc2ccc(F)cn2)CCN(Cc2cnc3ccccc3c2)C1 [Compound 439, (S)-3-((3-(ethoxymethyl)-3-(2-(5-fluoropyridin-2-yl)ethyl)pyrrolidin-1-yl)methyl)quinoline] | < 10
Cc1nc(CN2CCC(CCc3ccccc3)(C3CCCO3)C2)cs1 (stereo not drawn) [Compound 197, 2-methyl-4-((3-phenethyl-3-(tetrahydrofuran-2-yl)pyrrolidin-1-yl)methyl)thiazole] | > 10
CC(=O)Nc1ccc(CN2CCC(/C=C/c3ccccc3)(c3cccnc3)CC2)cc1 [Compound 48, (E)-N-(4-((4-(pyridin-3-yl)-4-styrylpiperidin-1-yl)methyl)phenyl)acetamide] | > 10
CCOCC1(CCc2nccn2C)CCN(C(C)c2ccc(C)nc2)C1 (stereo not drawn) [Compound 358, 5-(1-(3-(ethoxymethyl)-3-(2-(1-methyl-1H-imidazol-2-yl)ethyl)pyrrolidin-1-yl)ethyl)-2-methylpyridine] | > 10
CCOC[C@@]1(CCc2nccs2)CCN(C(C)(C)c2ccc(C)nc2)C1 [Compound 363, (S)-2-(2-(3-(ethoxymethyl)-1-(2-(6-methylpyridin-3-yl)propan-2-yl)pyrrolidin-3-yl)ethyl)thiazole] | < 10
CC(=O)Nc1ccc(CN2CCC(CCCc3ccccc3)(c3ccccn3)CC2)cc1 [Compound 15, N-(4-((4-(3-phenylpropyl)-4-(pyridin-2-yl)piperidin-1-yl)methyl)phenyl)acetamide] | > 10
Fc1cncc(CN2CCC(CCc3ccccc3)(C3CCCO3)C2)c1 (stereo not drawn) [Compound 241, 3-fluoro-5-((3-phenethyl-3-(tetrahydrofuran-2-yl)pyrrolidin-1-yl)methyl)pyridine] | > 10
Cc1ccc(CN2CCC(CCc3ccccc3)(C3CCCO3)C2)c(C)n1 (stereo not drawn) [Compound 273, 2,6-dimethyl-3-((3-phenethyl-3-(tetrahydrofuran-2-yl)pyrrolidin-1-yl)methyl)pyridine] | < 10
CCOCC1(CCc2ccccc2)CCN(c2ccc(N(C)C)cc2)CC1 [Compound 127, 4-(4-(ethoxymethyl)-4-phenethylpiperidin-1-yl)-N,N-dimethylaniline] | > 10
CC(=O)Nc1ccc(CN2CCC(CCc3ccccc3)(c3ccccn3)CC2)c(F)c1 [Compound 53, N-(3-fluoro-4-((4-phenethyl-4-(pyridin-2-yl)piperidin-1-yl)methyl)phenyl)acetamide] | > 10
CS(=O)(=O)N(c1ccc(CN2CCC(CCc3ccccc3)(c3ccccn3)CC2)cc1)S(C)(=O)=O [Compound 64, N-(methylsulfonyl)-N-(4-((4-phenethyl-4-(pyridin-2-yl)piperidin-1-yl)methyl)phenyl)methane-sulfonamide] | > 10
CCOCC1(CCc2cccs2)CN(Cc2cccnc2)C1 [Compound 394, 3-((3-(ethoxymethyl)-3-(2-(thiophen-2-yl)ethyl)azetidin-1-yl)methyl)pyridine] | > 10
CC(=O)Nc1ccc(CN2CCC(CCc3ccccc3)(c3ncon3)CC2)cc1 [Compound 10] | > 10
Cc1ccc(CN2CC[C@](CCc3ccsc3)([C@@H]3CCCO3)C2)cn1 [Compound 348, 2-methyl-5-(((S)-3-((S)-tetrahydrofuran-2-yl)-3-(2-(thiophen-3-yl)ethyl)pyrrolidin-1-yl)methyl)pyridine] | < 10
c1ccc(CCC2(C3CCCO3)CCN(CC3CCOC3)C2)cc1 (stereo not drawn) [Compound 230, 3-phenethyl-3-(tetrahydrofuran-2-yl)-1-((tetrahydrofuran-3-yl)methyl)pyrrolidine] | > 10
Cn1cc(CN2CCC(CCc3ccccc3)(C3CCCO3)C2)cn1 (stereo not drawn) [Compound 198, 1-methyl-4-((3-phenethyl-3-(tetrahydrofuran-2-yl)pyrrolidin-1-yl)methyl)-1H-pyrazole] | < 10
CC(C)(c1cccnc1)N1CC[C@@](CO)(CCc2cccs2)C1 [Compound 415] | < 10
CCOCC1(CCc2ccc(C)s2)CCN(Cc2ccc(C)nc2)CC1 [Compound 304, 5-((4-(ethoxymethyl)-4-(2-(5-methylthiophen-2-yl)ethyl)piperidin-1-yl)methyl)-2-methylpyridine] | < 10
